Source: article PMC4258421 (Archives of biochemistry and biophysics, 2014)
Read-outs that look alike come from different tables or passages of the source.

Key:
[1] = system: UGTs in human liver microsomes pooled from 150 donors (HLM150); type: in vitro ADME; details: for Km: read-out: Km for the microsomal reaction, glucuronidation at the C7 hydroxyl group, HLM150
plasma proteins = details: cited from earlier work
recombinant UGT1A1 = details: read-out: Km for the UGT1A1 reaction, glucuronidation at the C7 hydroxyl group; cited from earlier work
[2] = formation of 7-HOWAR-4-GLUC, DynaFit preferred model, 95 % CI in parentheses
[3] = formation of 7-HOWAR-7-GLUC, DynaFit preferred model, 95 % CI in parentheses

Structure (SMILES) | Vmax1 [1, 2] | Vmax2 [1, 2] | Ks [1, 3] | Vmax1 [1, 3] | Km [1] [µM] | not bound to plasma proteins (plasma proteins) [%] | Km (recombinant UGT1A1) [µM] | Ks [1, 2]
CC(=O)C[C@H](c1ccccc1)c1c(O)c2ccc(O)cc2oc1=O [R-7-HOWAR, R-7-hydroxywarfarin] | 58.0 (49.5–66.1) nmol/min/mg protein | 19.0 (16.3–21.4) nmol/min/mg protein | 121 (101–144) μM | 1090 (1050–1140) nmol/min/mg protein | 121 | 4.49 | 130 | –
CC(=O)C[C@@H](c1ccccc1)c1c(O)c2ccc(O)cc2oc1=O [S-7-OHWAR, S-7-hydroxywarfarin] | 19.7 (17.6–22.4) nmol/min/mg protein | – | 927 (559–1960) μM | 1470 (1020–2700) nmol/min/mg protein | 927 | 4.27 | 230 | 110 (83.0–149) μM
